Patent publication US20250108065A1 (AstraZeneca AB, priority 2022, published 2025)
Like-named read-outs stand apart in the source and are kept apart here.

Tests used:
[1] = DAPA-CKD, HbA1C < 6.5%, cited from earlier work
[2] = DAPA-CKD
[3] = DAPA-HF (prediabetes); slope at 14-720 days
Description: (§1) “eGFR slope” is the change in […] over time. “eGFR” stands for the estimated glomerular filtration rate.
(§2) (See Inker et al., GFR Slope as a Surrogate End Point for Kidney Disease Progression in Clinical Trials: A Meta-Analysis of Treatment Effects of Randomized Controlled Trials. J Am Soc Nephrol. 2019; 30 (9): 1735-45; Levey et al., GFR decline as an end point for clinical trials in CKD. Am J Kidney Dis. 2014; 64 (6): 821-35.)

[4] = Method: The DECLARE study enrolled a broad T2D patient population. By using parameters to select for a relatively healthy population that is close to the prediabetes population, the DECLARE population was split into 4 subgroups. The four subgroups in DECLARE are those with eGFR ≥60 ml/min/1.73 m^2, no history of HF at baseline and: • 1. HbA1c <7%, SBP <140 mmHg, and UACR ≤300 mg/g, or • 2. HbA1c <7%, SBP <140 mmHg, and UACR <30 mg/g, or • 3. T2D <5 years and UACR ≤300 mg/g, or • 4. T2D <5 years and UACR ≤30 mg/g.
as §2

[5] = DAPA-CKD; remark: listed apart in the source
Description: (§3) The patients without diabetes (or T2D) included those with prediabetes.

[6] = DAPA-HF
[7] = remark: listed apart in the source
Description: as §1, §2, §3

[8] = Meta-analysis DAPA-HF/CKD, cited from earlier work
[9] = non-diabetic and prediabetic patients, DAPA-HF and DAPA-CKD, 10 mg once daily
Description: DAPA-HF and DAPA-CKD included patients without diabetes, including those who qualify as prediabetic.

[10] = DAPA-HF; remark: listed apart in the source
[11] = DAPA-HF, HbA1C < 6.5%, cited from earlier work
[12] = DECLARE subgroup: HbA1c <7%, eGFR ≥60 ml/min/1.73 m^2, no history of HF, UACR ≤300 mg/g; Dapa 10 mg vs placebo
[13] = pre-diabetic 5.7% ≤ HbA1c < 6.5, Dapa vs placebo

CCOc1ccc(Cc2cc([C@@H]3O[C@H](CO)[C@@H](O)[C@H](O)[C@H]3O)ccc2Cl)cc1 [dapagliflozin]
Event rate of new onset T2D ([1]; 1398 participants): Dapa: 1.4 per 100 patient-years of follow-up | HR (95% CI) new onset T2D ([1]; Dapa vs placebo): 0.62 (0.36, 1.07) | Event rate of new onset T2D ([2]; pre-diabetic 5.7% ≤ HbA1c < 6.5, 660 participants): Dapa: 2.7 per 100 patient-years of follow-up | HR (95% CI) new onset T2D [2, 13]: 0.59 (0.33, 1.04) | eGFR chronic slope, Slope diff between Dapa 10 mg and Placebo [3]: 1.35 ml/min/1.73 m^2/yr | eGFR chronic slope, Slope diff between Dapa 10 mg and Placebo ([4]; DECLARE (Total Population), 6 months-2 yrs): 1.34 ml/min/1.73 m^2/yr | eGFR chronic slope, Slope diff between Dapa 10 mg and Placebo ([4]; DECLARE (Total Population), 6 months-3 yrs): 1.18 ml/min/1.73 m^2/yr | eGFR chronic slope, Slope diff between Dapa 10 mg and Placebo ([4]; DECLARE (Total Population), 6 months-4 yrs): 1.01 ml/min/1.73 m^2/yr | eGFR chronic slope, Slope diff between Dapa 10 mg and Placebo ([4]; DECLARE subgroup HbA1c <7%, SBP <140 mmHg, UACR <30 mg/g, eGFR ≥60, no HF, 6 months-2 yrs): 1.25 ml/min/1.73 m^2/yr | eGFR chronic slope, Slope diff between Dapa 10 mg and Placebo ([4]; DECLARE subgroup HbA1c <7%, SBP <140 mmHg, UACR <30 mg/g, eGFR ≥60, no HF, 6 months-3 yrs): 1.17 ml/min/1.73 m^2/yr | eGFR chronic slope, Slope diff between Dapa 10 mg and Placebo ([4]; DECLARE subgroup HbA1c <7%, SBP <140 mmHg, UACR <30 mg/g, eGFR ≥60, no HF, 6 months-3 yrs, listed as Dapa): 1.71 ml/min/1.73 m^2/yr | eGFR chronic slope, Slope diff between Dapa 10 mg and Placebo ([4]; DECLARE subgroup HbA1c <7%, SBP <140 mmHg, UACR <30 mg/g, eGFR ≥60, no HF, 6 months-4 yrs): 0.98 ml/min/1.73 m^2/yr | eGFR chronic slope, Slope diff between Dapa 10 mg and Placebo ([4]; DECLARE subgroup HbA1c <7%, SBP <140 mmHg, UACR ≤300 mg/g, eGFR ≥60, no HF, 6 months-2 yrs): 1.56 ml/min/1.73 m^2/yr | eGFR chronic slope, Slope diff between Dapa 10 mg and Placebo ([4]; DECLARE subgroup HbA1c <7%, SBP <140 mmHg, UACR ≤300 mg/g, eGFR ≥60, no HF, 6 months-3 yrs): 1.85 ml/min/1.73 m^2/yr | eGFR chronic slope, Slope diff between Dapa 10 mg and Placebo ([4]; DECLARE subgroup HbA1c <7%, SBP <140 mmHg, UACR ≤300 mg/g, eGFR ≥60, no HF, 6 months-4 yrs): 1.08 ml/min/1.73 m^2/yr | eGFR chronic slope, Slope diff between Dapa 10 mg and Placebo ([4]; DECLARE subgroup diabetes duration <5 years, UACR ≤30 mg/g, eGFR ≥60, no HF, 6 months-2 yrs): 1.03 ml/min/1.73 m^2/yr | eGFR chronic slope, Slope diff between Dapa 10 mg and Placebo ([4]; DECLARE subgroup diabetes duration <5 years, UACR ≤30 mg/g, eGFR ≥60, no HF, 6 months-3 yrs): 0.96 ml/min/1.73 m^2/yr | eGFR chronic slope, Slope diff between Dapa 10 mg and Placebo ([4]; DECLARE subgroup diabetes duration <5 years, UACR ≤30 mg/g, eGFR ≥60, no HF, 6 months-4 yrs): 0.86 ml/min/1.73 m^2/yr | eGFR chronic slope, Slope diff between Dapa 10 mg and Placebo ([4]; DECLARE subgroup diabetes duration <5 years, UACR ≤300 mg/g, eGFR ≥60, no HF, 6 months-2 yrs): 0.88 ml/min/1.73 m^2/yr | eGFR chronic slope, Slope diff between Dapa 10 mg and Placebo ([4]; DECLARE subgroup diabetes duration <5 years, UACR ≤300 mg/g, eGFR ≥60, no HF, 6 months-3 yrs): 0.92 ml/min/1.73 m^2/yr | eGFR chronic slope, Slope diff between Dapa 10 mg and Placebo ([4]; DECLARE subgroup diabetes duration <5 years, UACR ≤300 mg/g, eGFR ≥60, no HF, 6 months-4 yrs): 0.86 ml/min/1.73 m^2/yr | renal benefits following dapagliflozin treatment ([4]; DECLARE, T2D patients with eGFR 60 to 90 and ≥90 ml/min/1.73 m^2): reduced eGFR decline and albuminuria | HR, primary composite outcome of worsening of kidney function or death ([5]; patients with diabetes): 0.64 | HR, primary composite outcome of worsening of kidney function or death ([5]; patients without diabetes): 0.50 | HR, primary composite outcome (CV death, hospitalization for HF, or urgent HF visit) ([6]; patients with diabetes): 0.75 | HR, primary composite outcome (CV death, hospitalization for HF, or urgent HF visit) ([6]; patients without diabetes): 0.73 | eGFR chronic slope, Slope diff between Dapa 10 mg and Placebo ([7]; DAPA-CKD (prediabetes), slope at 14 days-30 months): 1.44 ml/min/1.73 m^2/yr | placebo-corrected difference in eGFR slope ([7]; DAPA-CKD, T2D patients, from baseline to end of treatment): 1.18 ml/min/1.73 m^2/yr | placebo-corrected difference in eGFR slope ([7]; DAPA-CKD, T2D patients, from two weeks to end of treatment): 2.26 ml/min/1.73 m^2/yr | placebo-corrected difference in eGFR slope ([7]; DAPA-CKD, patients without T2D, from baseline to end of treatment): 0.46 ml/min/1.73 m^2/yr | placebo corrected difference in eGFR slope ([7]; DAPA-CKD, patients without T2D, from two weeks to end of treatment): 1.29 ml/min/1.73 m^2/yr | Event rate of new onset T2D ([8]; HbA1c < 6.5%, 4003 participants): Dapa: 2.6 per 100 patient-years of follow-up | HR (95% CI) new onset T2D ([8]; HbA1c < 6.5%, Dapa vs placebo): 0.67 (0.51, 0.88) | Event rate of new onset T2D ([8]; pre-diabetic 5.7% ≤ HbA1c < 6.5, 2408 participants): Dapa: 4.2 per 100 patient-years of follow-up | HR (95% CI) new onset T2D [8, 13]: 0.69 (0.52, 0.91) | Events of definite or probable diabetic ketoacidosis (DKA) [9]: not observed | major hypoglycemic AEs [9]: not observed | safety profile [9]: consistent with the profile established in patients with T2D | Event rate of new onset T2D ([10]; pre-diabetic 5.7% ≤ HbA1C < 6.5, 1748 participants): Dapa: 5.3 per 100 patient-years of follow-up | HR (95% CI) new onset T2D ([10]; pre-diabetic 5.7% ≤ HbA1C < 6.5, Dapa vs placebo): 0.72 (0.52, 0.99) | Event rate of new onset T2D ([11]; 2605 participants): Dapa: 5.0 per 100 patient-years of follow-up | HR (95% CI) new onset T2D ([11]; Dapa vs placebo): 0.68 (0.50, 0.94) | risk of worsening blood pressure (time to worsening in blood pressure category) [12]: lowered the risk of worsening blood pressure compared with placebo
